Measured values published in patent US7205382B2, “Peptides, the production and use thereof for binding immunoglobulins” (Fresenius Medical Care Affina GmbH, priority 2000, dated 2007).
Bridge positions count the residues as written; N and C are the ends. Square brackets hold non-standard residues; d marks the D form. Ends that are not written are not given here. cellulose = not defined here; βAla = NCCC(=O)O

Tests used:
Type in all cases: binding
Parameters in all cases: key: No binding of immunoglobulin for the defined peptide variant, detection negative: 0; Binding of immunoglobulin for the defined peptide variant, detection positive: +
[1] = test system: immunoglobulins in human plasma; assay: Cellulose-immobilized 13-mer peptide variants incubated with human plasma, anti-human IgG-AP detection; conditions: human plasma as sample, diluted 1:10,000 in blocking buffer, 3 h room temperature
Outline: (§1)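 Read-out was colorimetric NBT/BCIP staining (developing buffer pH 9.5) after alkaline phosphatase-conjugated anti-human IgG at 1.2 μg/ml. Before this, the immobilized peptides had been incubated 3 h at room temperature with 1 μg/ml IgG-Fc, 1:10,000 diluted serum, or albumin-containing blocking buffer without addition.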

[2] = test system: serum albumin; assay: Cellulose-immobilized 13-mer peptide variants incubated with serum albumin (negative control), anti-human IgG-AP detection; conditions: blocking buffer without addition, 3 h room temperature
Outline: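 Spot membrane, (βA)(βA) spacer; T-TBS pH 8.0 wash, block 5% saccharose/4% BSA. 3 h RT with IgG-Fc 1 μg/ml, serum 1:10,000, or block buffer only (specificity control). 3× wash, AP-anti-human IgG 1.2 μg/ml, NBT/BCIP in pH 9.5 buffer.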

[3] = test system: human IgG-Fc; assay: Cellulose-immobilized 13-mer peptide variants incubated with human IgG-Fc, anti-human IgG-AP detection; conditions: IgG-Fc 1 μg/ml in blocking buffer, 3 h room temperature
Outline: as §1

Row | Result for incubation with human plasma (immunoglobulin binding detection) [1] | Result for incubation with serum albumin (immunoglobulin binding detection) [2] | Result for incubation with human IgG-Fc (immunoglobulin binding detection) [3] | Substance
1 | + | 0 | + | 08D: cellulose-bound 13-mer variant DCAWHLGDLVWCT-(βA)(βA) (DCAWHLGDLVWCT-{βAla-βAla-cellulose}; disulfide 2-12 (inferred); not fully specified (N-terminus); printed as DCAWHLGDLVWCT-(βA)(βA); reading uncertain)
2 | + | 0 | + | 01G: cellulose-bound 13-mer variant GCAWHLGELVWCT-(βA)(βA) (GCAWHLGELVWCT-{βAla-βAla-cellulose}; disulfide 2-12 (inferred); reading uncertain; also: printed as GCAWHLGELVWCT-(βA)(βA))
3 | 0 | 0 | 0 | 08P: cellulose-bound 13-mer variant DCAWHLGPLVWCT-(βA)(βA) (DCAWHLGPLVWCT-{βAla-βAla-cellulose}; disulfide 2-12 (inferred); not fully specified (N-terminus); printed as DCAWHLGPLVWCT-(βA)(βA); reading uncertain)
4 | 0 | 0 | 0 | 10K: cellulose-bound 13-mer variant DCAWHLGELKWCT-(βA)(βA) (DCAWHLGELKWCT-{βAla-βAla-cellulose}; disulfide 2-12 (inferred); reading uncertain; also: printed as DCAWHLGELKWCT-(βA)(βA))
5 | 0 | 0 | 0 | 09V: cellulose-bound 13-mer variant DCAWHLGEVVWCT-(βA)(βA) (DCAWHLGEVVWCT-{βAla-βAla-cellulose}; disulfide 2-12 (inferred); reading uncertain; also: printed as DCAWHLGEVVWCT-(βA)(βA))
6 | 0 | 0 | 0 | 05S: cellulose-bound 13-mer variant DCAWSLGELVWCT-(βA)(βA) (disulfide 2-12 (inferred); not fully specified (N-terminus, C-terminus); printed as DCAWSLGELVWCT-(βA)(βA); also: cellulose-bound)
7 | 0 | 0 | 0 | 02V: cellulose-bound 13-mer variant DVAWHLGELVWCT-(βA)(βA) (DVAWHLGELVWCT[βAla][βAla]; not fully specified; printed as DVAWHLGELVWCT-(βA)(βA); also: cellulose-bound)
8 | 0 | 0 | 0 | 02W: cellulose-bound 13-mer variant DWAWHLGELVWCT-(βA)(βA) (DWAWHLGELVWCT[βAla][βAla]; not fully specified; printed as DWAWHLGELVWCT-(βA)(βA); also: cellulose-bound)
9 | 0 | 0 | 0 | 02N: cellulose-bound 13-mer variant DNAWHLGELVWCT-(βA)(βA) (DNAWHLGELVWCT[βAla][βAla]; not fully specified; printed as DNAWHLGELVWCT-(βA)(βA); also: cellulose-bound)
10 | 0 | 0 | 0 | 06V: cellulose-bound 13-mer variant DCAWHVGELVWCT-(βA)(βA) (DCAWHVGELVWCT-{βAla-βAla-cellulose}; disulfide 2-12 (inferred); not fully specified (N-terminus); printed as DCAWHVGELVWCT-(βA)(βA); reading uncertain)
11 | 0 | 0 | 0 | 08F: cellulose-bound 13-mer variant DCAWHLGFLVWCT-(βA)(βA) (DCAWHLGFLVWCT-{βAla-βAla-cellulose}; disulfide 2-12 (inferred); not fully specified (N-terminus); printed as DCAWHLGFLVWCT-(βA)(βA); reading uncertain)
12 | 0 | 0 | 0 | 09D: cellulose-bound 13-mer variant DCAWHLGEDVWCT-(βA)(βA) (DCAWHLGEDVWCT-{βAla-βAla-cellulose}; disulfide 2-12 (inferred); reading uncertain; also: printed as DCAWHLGEDVWCT-(βA)(βA))
13 | 0 | 0 | 0 | 10P: cellulose-bound 13-mer variant DCAWHLGELPWCT-(βA)(βA) (DCAWHLGELPWCT-{βAla-βAla-cellulose}; disulfide 2-12 (inferred); reading uncertain; also: printed as DCAWHLGELPWCT-(βA)(βA))
14 | 0 | 0 | 0 | 12D: cellulose-bound 13-mer variant DCAWHLGELVWDT-(βA)(βA) (DCAWHLGELVWDT-{βAla-βAla-cellulose}; not fully specified; printed as DCAWHLGELVWDT-(βA)(βA); reading uncertain)
15 | 0 | 0 | 0 | 10I: cellulose-bound 13-mer variant DCAWHLGELIWCT-(βA)(βA) (DCAWHLGELIWCT-{βAla-βAla-cellulose}; disulfide 2-12 (inferred); reading uncertain; also: printed as DCAWHLGELIWCT-(βA)(βA))
16 | 0 | 0 | + | 08S: cellulose-bound 13-mer variant DCAWHLGSLVWCT-(βA)(βA) (DCAWHLGSLVWCT-{βAla-βAla-cellulose}; disulfide 2-12 (inferred); reading uncertain; also: printed as DCAWHLGSLVWCT-(βA)(βA))
17 | 0 | 0 | 0 | 01Y: cellulose-bound 13-mer variant YCAWHLGELVWCT-(βA)(βA) (YCAWHLGELVWCT-{βAla-βAla-cellulose}; disulfide 2-12 (inferred); reading uncertain; also: printed as YCAWHLGELVWCT-(βA)(βA))
18 | 0 | 0 | 0 | 09A: cellulose-bound 13-mer variant DCAWHLGEAVWCT-(βA)(βA) (DCAWHLGEAVWCT-{βAla-βAla-cellulose}; disulfide 2-12 (inferred); reading uncertain; also: printed as DCAWHLGEAVWCT-(βA)(βA))
19 | + | 0 | + | 06K: cellulose-bound 13-mer variant DCAWHKGELVWCT-(βA)(βA) (DCAWHKGELVWCT-{βAla-βAla-cellulose}; disulfide 2-12 (inferred); not fully specified (N-terminus); printed as DCAWHKGELVWCT-(βA)(βA); reading uncertain)
20 | + | 0 | + | 08R: cellulose-bound 13-mer variant DCAWHLGRLVWCT-(βA)(βA) (DCAWHLGRLVWCT-{βAla-βAla-cellulose}; disulfide 2-12 (inferred); reading uncertain; also: printed as DCAWHLGRLVWCT-(βA)(βA))
21 | 0 | 0 | 0 | 02K: cellulose-bound 13-mer variant DKAWHLGELVWCT-(βA)(βA) (DKAWHLGELVWCT[βAla][βAla]; not fully specified; printed as DKAWHLGELVWCT-(βA)(βA); also: cellulose-bound)
